Assay [1] has as its target T1, NK2 (Homo sapiens, UniProt P21452).
T1 construct: expressed in transfected cells; host or cells: HEK293
T1 sequence (P21452 1-398): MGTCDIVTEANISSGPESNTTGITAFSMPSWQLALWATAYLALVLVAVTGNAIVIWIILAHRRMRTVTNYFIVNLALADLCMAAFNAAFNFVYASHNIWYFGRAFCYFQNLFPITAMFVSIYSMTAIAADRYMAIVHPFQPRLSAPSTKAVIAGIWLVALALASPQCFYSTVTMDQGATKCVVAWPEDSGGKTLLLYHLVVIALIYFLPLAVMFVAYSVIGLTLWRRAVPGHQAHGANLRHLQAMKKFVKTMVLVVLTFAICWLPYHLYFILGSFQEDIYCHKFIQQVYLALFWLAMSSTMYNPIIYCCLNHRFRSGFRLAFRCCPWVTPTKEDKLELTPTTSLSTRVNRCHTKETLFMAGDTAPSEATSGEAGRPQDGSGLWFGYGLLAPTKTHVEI
Briefly: NanoBiT cytosolic Ca^2+ response, NK2. Particulars: HEK293 cells, NK2, Calmodulin-SmBiT/LgBiT-MYLK2S, luminescence. The class given is cell-based. The method, then:
NKs have been extensively studied, especially with respect to neuropeptide-stimulated Ca^2+ responses. Recently, we developed a real-time calcium assay based on NanoBiT and the Ca^2+-dependent interaction of calmodulin and its target proteins to analyze NK-mediated cellular responses. First, neuropeptide-stimulated luciferase activation was measured in cells expressing NKs and calcium probes to determine the suitability of our assay method. […] Next, the activation efficiency of receptors by each peptide was investigated on Ca^2+ responses based on NanoBiT assay.
NanoLuc Binary Technology (NanoBiT) was utilized to investigate protein–protein interaction. HEK293 cells were seeded in a 96-well white plate at a density of 2 × 10^4 cells per well. The following day, cells were transfected with 50 ng of each plasmid containing SmBiT- or LgBiT- tagged genes using 0.2 µl Lipofectamine 2000 (Invitrogen, Carlsbad, CA, USA). […] Baseline luminescence was measure for 10 min using a SpectraMax L plate reader (Molecular Devices, San Jose, CA, USA). After stimulation with ligands, the luminescence signal was continuously measured for 1 h.
Cytosolic Ca^2+ changes were detected using a NanoBiT system as described previously. […]

Assay [2] concerns the target T2, NK1 (Homo sapiens, UniProt P25103).
T2 construct: expressed in transfected cells; host or cells: HEK293
The assay can be described thus: NanoBiT β-arrestin1 recruitment to NK1 (NK1-SmBiT/β-arr1-LgBiT). In kind it is cell-based. As for the experimental part: (§1) Ligand-stimulated β-arrestin recruitment to receptors was also examined using the NanoBiT system. The NanoBiT system was used to create construct combinations of receptors and β-arrestin, which were tagged with either SmBiT or LgBiT at N- or C-terminal. These constructs were then expressed in HEK293 cells.
(§2) NanoLuc Binary Technology (NanoBiT) was utilized to investigate protein–protein interaction. HEK293 cells were seeded in a 96-well white plate at a density of 2 × 10^4 cells per well. The following day, cells were transfected with 50 ng of each plasmid containing SmBiT- or LgBiT- tagged genes using 0.2 µl Lipofectamine 2000 (Invitrogen, Carlsbad, CA, USA). To investigate the effect of one receptor on another receptor in β-arrestin recruitment, 100 ng of un-tagged receptor was co-transfected with 50 ng of each of NanoBiT-tagged plasmid and mixed with 0.4 µl Lipofectamine 2000. At 24 h after transfection, the medium was changed to 100 µl of Opti-MEM and the plate was stabilized at room temperature for 10 min before adding NanoBiT substrate. If an inhibitor was used, it was pre-incubated at 37 ℃ for 20 min and at room temperature for 10 min before substrate addition. Baseline luminescence was measure for 10 min using a SpectraMax L plate reader (Molecular Devices, San Jose, CA, USA). After stimulation with ligands, the luminescence signal was continuously measured for 1 h.
Background: Recruitment of arrestin is a read-out of receptor activation apart from second messengers.

The subject of assay [3] is human colorectal cancer cell DLD-1. To be noted: cited from earlier work. The text has this: Although some studies have reported that NK1 and NK2 are expressed in some cancers, the role of NK2 in cancer remains controversial.
The conditions of assay [4]: cited from earlier work.
The test system of assay [5] is NK2. The assay can be described thus: NanoBiT β-arrestin1 recruitment to NK2 (NK2-LgBiT/β-arr1-SmBiT). The class given is cell-based. To be noted: for effect of aprepitant on NKA-stimulated β-arrestin1 recruitment: 10 nM NKA. The method, then: as §1, §2
For assay [6], the target named is Neurokinin-1 receptor, C-terminal SmBiT- or LgBiT-tagged (UniProt P25103 1-407). Briefly: cell-based or functional assay.

In general, EC50 refers to the concentration needed to bring the measured effect to its halfway point. A higher EC50 goes with lower potency in that assay.

T2 sequence (P25103 whole entry): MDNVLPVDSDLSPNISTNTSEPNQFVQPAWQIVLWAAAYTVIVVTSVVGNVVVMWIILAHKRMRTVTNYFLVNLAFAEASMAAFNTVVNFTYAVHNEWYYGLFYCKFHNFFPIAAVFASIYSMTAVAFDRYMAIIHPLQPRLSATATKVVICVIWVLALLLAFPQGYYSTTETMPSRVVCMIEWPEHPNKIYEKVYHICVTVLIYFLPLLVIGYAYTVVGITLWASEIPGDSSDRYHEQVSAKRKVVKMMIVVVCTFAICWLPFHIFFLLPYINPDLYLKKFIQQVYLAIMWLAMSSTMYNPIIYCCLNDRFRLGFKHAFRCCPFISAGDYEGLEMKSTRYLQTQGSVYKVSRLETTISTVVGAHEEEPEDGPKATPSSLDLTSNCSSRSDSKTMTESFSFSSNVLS
Chain of Neurokinin-1 receptor, C-terminal SmBiT- or LgBiT-tagged (P25103 whole entry): as above

In assay [1], `CSCC[C@H](NC(=O)[C@H](CC(C)C)NC(=O)CNC(=O)[C@@H](NC(=O)[C@H](Cc1ccccc1)NC(=O)[C@H](Cc1ccccc1)NC(=O)[C@H](CC(=O)O)NC(=O)[C@H](Cc1c[nH]cn1)NC(=O)[C@H](CCSC)NC(=O)[C@@H](N)CC(=O)O)C(C)C)C(N)=O` [NKB, neurokinin B] yielded a 50% effective concentration (EC50) of 0.24 nM.
As to `C[C@@H](O[C@H]1OCCN(Cc2n[nH]c(=O)[nH]2)[C@H]1c1ccc(F)cc1)c1cc(C(F)(F)F)cc(C(F)(F)F)c1` [aprepitant], the “SP-stimulated luciferase activities in the presence of aprepitant and intact NK2” value in assay [2] (NK1-SmBiT/β-arr1-LgBiT + intact NK2, 1 μM aprepitant 30 min, 1 μM SP) is given as “slightly increased by SP even in the presence of the inhibitor”. Also, in assay [2] (NK1-SmBiT/β-arr1-LgBiT + intact NK2, aprepitant 30 min, 10 nM NKA), the “NKA-stimulated luciferase activities in the presence of aprepitant and intact NK2” value is “slightly increased by NKA in the presence of aprepitant”. Besides, the “effect of aprepitant on SP-stimulated β-arrestin1 recruitment” value in assay [2] (NK1-SmBiT/β-arr1-LgBiT, 1 μM aprepitant 30 min, 1 μM SP) is “completely inhibited”; in assay [5] (NK2-LgBiT/β-arr1-SmBiT, 1 μM aprepitant 30 min, 1 μM SP), “not affected”. Moreover, the “effect of aprepitant on NKA-stimulated β-arrestin1 recruitment” value is recorded as “inhibited” in assay [2] (NK1-SmBiT/β-arr1-LgBiT, aprepitant 30 min, 10 nM NKA); “not downregulated” in assay [5] (NK2-LgBiT/β-arr1-SmBiT + intact NK1, aprepitant 30 min); “not influenced” in assay [5] (NK2-LgBiT/β-arr1-SmBiT, aprepitant 30 min). Besides, the “effect on AKT/mTOR and Wnt/β-catenin signaling pathways” value in assay [3] is “suppression of AKT/mTOR and Wnt/β-catenin signaling pathways”. In addition, the antitumor activity result in assay [4] is on record as “antitumor activities through promoting apoptotic mechanisms”. The “effect of aprepitant on SP-stimulated NK2/β-arrestin1 interaction” value in assay [5] (NK2-LgBiT/β-arr1-SmBiT + intact NK1, 10 nM SP, aprepitant) is recorded as “inhibited luciferase activities”.

B1: Neurokinin-2 receptor, C-terminal SmBiT- or LgBiT-tagged (receptor, UniProt P21452 1-398, looked up)
chain: MGTCDIVTEANISSGPESNTTGITAFSMPSWQLALWATAYLALVLVAVTGNAIVIWIILAHRRMRTVTNYFIVNLALADLCMAAFNAAFNFVYASHNIWYFGRAFCYFQNLFPITAMFVSIYSMTAIAADRYMAIVHPFQPRLSAPSTKAVIAGIWLVALALASPQCFYSTVTMDQGATKCVVAWPEDSGGKTLLLYHLVVIALIYFLPLAVMFVAYSVIGLTLWRRAVPGHQAHGANLRHLQAMKKFVKTMVLVVLTFAICWLPYHLYFILGSFQEDIYCHKFIQQVYLALFWLAMSSTMYNPIIYCCLNHRFRSGFRLAFRCCPWVTPTKEDKLELTPTTSLSTRVNRCHTKETLFMAGDTAPSEATSGEAGRPQDGSGLWFGYGLLAPTKTHVEI
As to B1, the “EC50 of SP for recruitment of β-arrestin1-SmBiT to NK2-LgBiT (NanoBiT luciferase) with intact NK1 co-expressed” value in assay [6] was found to be 164 nM.

The values above are taken from paper PMC10652611 (Cell & Bioscience, 2023).
